These results are taken from patent EP3884941A1, “INFLAMMASOME INHIBITORS AND USE THEREOF” (CENTRO DE INVESTIGACION PRINCIPE FELIPE, priority 2020, dated 2021).

“Also recorded” adds a separate entry of the source.

The target in one assay is T1, caspase-9 (Homo sapiens, UniProt P55211).
T1 sequence (P55211 1-416): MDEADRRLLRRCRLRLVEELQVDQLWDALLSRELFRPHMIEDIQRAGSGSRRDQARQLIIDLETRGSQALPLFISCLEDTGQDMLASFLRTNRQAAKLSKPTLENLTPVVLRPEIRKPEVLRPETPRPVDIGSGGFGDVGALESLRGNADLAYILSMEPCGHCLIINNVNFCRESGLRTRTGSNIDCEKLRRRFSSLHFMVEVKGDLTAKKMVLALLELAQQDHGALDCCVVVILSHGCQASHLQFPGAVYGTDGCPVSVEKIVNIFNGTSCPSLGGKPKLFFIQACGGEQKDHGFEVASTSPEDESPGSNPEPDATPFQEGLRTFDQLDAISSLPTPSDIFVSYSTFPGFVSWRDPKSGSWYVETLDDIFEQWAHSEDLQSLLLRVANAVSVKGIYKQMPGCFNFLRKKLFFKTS
In words: caspase-9 activity assay (Na-citrate pre-activated). It is filed as biochemical. The note with it: recombinant caspase-9; MM01 5 µM (Figure 2B). Here is the method:
Caspase-9 was activated with kosmotropic salts, in particular with Na-citrate. Briefly, 5 µM caspase-9 was pre-activated for 20 min in SC buffer (50 mM Na2HPO4, 150 mM NaCl, 1.5% sucrose, 0.05% CHAPS, 10 mM DTT, 0.7 M Na-citrate, pH 7.4) at RT. Once pre-activated, the complete reaction was diluted to 100 nM caspase-9 in assay buffer without Na-Citrate and incubated 20 min at RT in the presence or absence of compounds. Enzyme activity was monitored by adding the Ac-LEHD-afc substrate (40 µM) using a Victor 2 spectrofluorimeter.

Assay [1] deals with NLRP3 inflammasome. In words: inflammasome activation cellular assay, LPS plus ATP, THP-1 cells. It is filed as cell-based, human. The protocol: The MM01 compound was evaluated in the THP-1, or PMA-differentiated THP-1 cells (50 nM PMA for 24h) stimulated with lipopolysaccharide (LPS) plus adenosine triphosphate (ATP) to stimulate ASC-dependent inflammasomes NLRP3. Briefly, 1x10^6 cells were seeded in 6-well plates in 1 mL RPMI media that contained 1% FBS. Cells were either mock-treated or primed with compounds at the indicated concentrations for 30 min, followed by treatment with 100 ng/mL LPS (Sigma) and 2.5 mM ATP (Sigma) for 6 h at 37°C. In the case of nigericin stimulation, cells were primed with LPS for 3h, and then 10 µM nigericin (Sigma) was added for 30 min. Supernatants were harvested and clarified by centrifugation at 1500 rpm at RT, and a cytokine analysis was performed. Both IL-1β secretion and the release of IL-18were monitored by an ELISA assay (BD OptEIA™ Human IL-1β ELISA Kit and Human IL-18 Module Set eBioscience) following the manufacturer's instructions. Cell viability was analyzed in parallel by evaluating the release of lactate dehydrogenase (LDH) according to a commercial kit (CytoTox-ONE™ Homogeneous Membrane Integrity Assay; Promega). The release of LDH was calculated using the formula: the release of LDH (%) = 100x (Abs490 treated -Abs490 untreated cells)/ Abs490 untreated cells lysed with Triton 9% (maximum release of LDH).
The supernatants of the treated cells were precipitated by the chloroform-methanol method. Pellets were obtained by lysing cells in 25 mM of Tris-HCI pH 7.4, 1 mM EDTA, 1 mM EGTA and 1% SDS, plus protease and phosphatase inhibitors. The protein concentration was determined by the BCA protein assay. Samples were separated in a 14% SDS-PAGE gel, transferred to a nitrocellulose membrane and blocked with 5% skimmed milk for 1 h. Then the membrane was incubated overnight with primary antibodies: α-casp1 (1:1000; Cell Signaling 2225), α-IL-1β (1:1000; Acris R1130P), α-NLRP3 (1:1000; Cell Signaling 15101), α-tubulin (1:3000; Abcam ab6160) at 4°C. Membranes were washed and probed with the appropriate secondary antibody conjugated with peroxidase for enhanced chemiluminescence detection (Amersham Pharmacia Biotech).

Assay [2] concerns NLRP3 inflammasome. As to the kind of experiment: murine peritoneal macrophages cellular assay, LPS plus ATP. It is filed as cell-based, Mice (BALB/c). The protocol:
Mice (BALB/c) were euthanized, and 5 ml of cold medium was injected (20G needle) into the peritoneal region. The aspirated fluid from peritoneum was centrifuged for 10 min at 400 × g and the cell pellet resuspended in DMEM/F12-10 (1 ml). 40000 cells/well were plated in 24-well plates. Cells were allowed to adhere to the plate by culturing them 2 h at 37°C and then, non-adherent cells were removed by gently washing three times with warm PBS. Macrophages were primed for 4 h with 100 ng/ml pure LPS (Alexis Biochemicals Corporation), in serum-free IMDM medium followed by 30 min with 5 mM ATP. Supernatants were harvested and clarified by centrifugation at 1500 rpm at RT and cytokine, and caspase-1 activation analysis was performed as previously described in Example 3.

The test system of assay [3] is NLRP3 inflammasome. As to the kind of experiment: human PBMCs cellular assay, LPS plus ATP. It is filed as cell-based. The note with it: IL-1β and LDH release; MM01 1, 5 or 10 µM (Figure 5E, 5F). Here is the method: Human peripheral blood mononuclear cells (PBMCs) are lymphocytes and monocytes. PBMCs were separated from the whole blood by a density gradient centrifugation method using Ficoll Histopaque. Purified PBMCs were plated in 24-well plates at 5000000 cells/well in free-serum RPMI medium. Cells were primed for 3 h with 10 ng/ml pure LPS followed by 4 h with compounds and 5 mM ATP. Supernatants were harvested and clarified by centrifugation at 1500 rpm at RT and cytokine and caspase-1 activation analysis was performed as previously described.
A general note: Release of lactate dehydrogenase indicates damage to the cell membrane.

Another assay relates to ASC oligomerization. In words: ASC oligomerization assay (DSS crosslinking, immunoblotting). It is filed as cell-based, human. The settings on record: crosslinked pellets, LPS plus nigericin; MM01 10 µM, VX-765 5 µM. The protocol:
PMA-differentiated THP-1 cells were seeded at 1x10^6 cells/ml in 6-well plates. Cells were treated with compounds for 30 min, primed with 100 ng/ml LPS for 3h and then stimulated with 10 µM nigericin for 30 min. The supernatants were removed, cells were rinsed in ice-cold PBS and lysed in NP-40 buffer (20 mM HEPES-KOH pH 7.5, 150 mM KCL, 1% NP-40 plus protease inhibitors). Lysates were centrifuged at 330 × g for 10 min at 4 °C. The pellets were washed and resuspended in PBS plus 2 mM disuccinimidyl suberate (DSS) and incubated at RT for 30 min with rotation. Samples were then centrifuged at 330 × g for 10 min at 4 °C. The supernatant was removed, and the cross-linked pellets were resuspended in sample buffer, boiled and analyzed by immunoblotting.
For orientation: A western blot detects proteins with antibodies after separation by electrophoresis.

[4] abbreviates: THP-1, LPS 100 ng/ml + ATP 2.5 mM, MM01 1, 2.5 or 5 µM, ELISA.

Consider `C=CCN1C(=O)/C(=C2/C(=O)Nc3ccccc32)SC1=S` [MM01], for which, at caspase-9, the caspase-9 activity result is “do not act on”. Moreover, in the assay with NLRP3 inflammasome [1] (setting [4]), the IL-1β secretion entry is “decrease” and the IL-18 secretion entry was “decrease”. Besides, in the assay on NLRP3 inflammasome [1] (THP-1, LPS + ATP, immunoblotting (Figure 3C)), the “caspase-1 and IL-1β processing” value is reported as “decrease”. Also, the LDH release result in the assay on NLRP3 inflammasome [1] (THP-1, LPS + ATP, pyroptosis / cell viability, MM01 1, 2.5 or 5 µM, VX-765 5 µM) is listed as “significantly reduce; also recorded: significantively decreased”. Further, in the assay on NLRP3 inflammasome [2], the TNF-α release result is “not correlated with a significant reduction” and the “release of LDH” value is reported as “decreased”. Besides, in the assay with NLRP3 inflammasome [2] (at 5 and 10 µM of MM01), the IL-1β release entry was “significant inhibition” and the IL-6 release entry was “significant inhibition”. The “LPS/ATP stimulation of isolated human PBMCs” value in the assay on NLRP3 inflammasome [3] was “inhibits”. The ASC oligomerization entry in the assay with ASC oligomerization was “inhibited”.
